According to PubChem BioAssay (NCI):
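Cultured in 96-well plates, cells were exposed to test compound for 48 hours across five concentrations. TGI denotes the concentration required for complete inhibition of growth.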

Assays:
Assay in all cases: NCI anticancer screen, dose series, 48 h
RPMI-8226 leukemia = test system: RPMI-8226 leukemia
A549 NSCLC = test system: A549 NSCLC
HT29 colon = test system: HT29 colon
EKVX NSCLC = test system: EKVX NSCLC
HOP-62 NSCLC = test system: HOP-62 NSCLC
IGROV1 ovarian = test system: IGROV1 ovarian
A498 renal = test system: A498 renal
U251 CNS = test system: U251 CNS
UO-31 renal = test system: UO-31 renal

SMILES | TGI (RPMI-8226 leukemia) [µM] | TGI (A549 NSCLC) [µM] | TGI (HT29 colon) [µM] | TGI (EKVX NSCLC) [µM] | TGI (HOP-62 NSCLC) [µM] | TGI (IGROV1 ovarian) [µM] | TGI (A498 renal) [µM] | TGI (U251 CNS) [µM] | TGI (UO-31 renal) [µM]
O=c1[nH]c2ccc(C(F)(F)F)cc2nc1-c1ccccc1 | > 100 | > 100 | > 100 | > 100 | > 100 | > 100 | > 100 | – | –
CC(C)(C)OC(=O)[N+](=N)C(=O)C1CCC(=O)N1C(=O)OCc1ccccc1 (stereo not given) | > 100 | > 100 | > 100 | > 100 | > 100 | > 100 | – | > 100 | > 100
Cc1ccc2c(c1)SSSSS2 | – | 48.7 | 70.6 | 65.1 | 38 | 40.8 | 35.1 | > 100 | 33
O=c1c2ccccc2nc2n1NC(c1c(Cl)cccc1Cl)N2c1cccc(Cl)c1 (stereo not given) | > 100 | 22.2 | > 100 | > 100 | > 100 | 22.4 | – | 5.19 | 7.39
CC(=O)OCC1OC(On2ccccc2=S)C(OC(C)=O)C(OC(C)=O)C1OC(C)=O (stereo not given) | – | > 100 | > 100 | > 100 | > 100 | > 100 | > 100 | > 100 | > 100
CSC(SC)=C1CC(=O)Nc2ccccc2C1=O | – | > 100 | > 100 | > 100 | > 100 | > 100 | > 100 | > 100 | > 100
Cc1ccc(Nc2nc(=S)[nH]c3[nH]ncc23)cc1 | > 100 | > 100 | > 100 | > 100 | > 100 | > 100 | > 100 | > 100 | > 100
OC1(c2ccccc2)CC2CCC(C1)N2CCc1ccccc1 (stereo not given) | > 100 | > 100 | 79.3 | > 100 | > 100 | > 100 | 56.4 | > 100 | > 100
NC(=O)NC(=O)c1cnccn1 | > 100 | > 100 | – | > 100 | > 100 | – | > 100 | > 100 | > 100
CN(C)CCCNc1c(O)c2c(c(O)c1Cl)C(=O)C=CC2=O | – | 3.52 | 4.27 | > 10 | 7.87 | 3.45 | > 10 | 3.46 | > 10
COc1cc(NS(C)(=O)=O)ccc1NCc1cnc2ccc3[nH]c(C)ccc3c12 | 45.2 | > 100 | > 100 | > 100 | > 100 | > 100 | 42 | > 100 | 60.6
Cc1cc2nc3n[nH]c(N)c3nc2cc1C | > 100 | > 100 | > 100 | > 100 | > 100 | > 100 | > 100 | > 100 | > 100
COc1ccc(/C=C2\C=Cc3ccccc32)cc1OC | – | > 100 | > 100 | > 100 | > 100 | > 100 | > 100 | > 100 | –
